Experiment [1] addresses T1, C4760 DNA polymerase (a variant of DPO4) (Saccharolobus solfataricus, UniProt Q97W02, A155G/A42V/D156R/D292Y/D294N/E291S/E324K/E325K/E327K/E63R/E79L/G187P/G299W/I153V/I189F/I248T/I295S/K152A/K317Q/K321Q/K56Y/K78D/L293W/M76W/N188Y/P184Q/Q82W/Q83G/R300S/S297Y/S86E/T290K/T301W/V289W/V296Q).
T1 construct: Eco or Kod SSB in reaction as additive
T1 sequence (Q97W02 1-340 A155G/A42V/D156R/D292Y/D294N/E291S/E324K/E325K/E327K/E63R/E79L/G187P/G299W/I153V/I189F/I248T/I295S/K152A/K317Q/K321Q/K56Y/K78D/L293W/M76W/N188Y/P184Q/Q82W/Q83G/R300S/S297Y/S86E/T290K/T301W/V289W/V296Q): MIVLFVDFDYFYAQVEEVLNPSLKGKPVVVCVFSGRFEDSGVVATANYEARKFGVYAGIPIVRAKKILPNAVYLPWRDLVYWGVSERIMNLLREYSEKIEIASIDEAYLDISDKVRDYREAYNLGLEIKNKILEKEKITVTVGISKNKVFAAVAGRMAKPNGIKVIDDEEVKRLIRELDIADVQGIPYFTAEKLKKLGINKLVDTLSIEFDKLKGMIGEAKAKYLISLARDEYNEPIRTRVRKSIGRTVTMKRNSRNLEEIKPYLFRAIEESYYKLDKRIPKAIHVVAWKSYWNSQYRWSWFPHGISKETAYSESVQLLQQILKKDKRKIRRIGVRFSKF
It is filed as biochemical, Sulfolobus solfataricus. To be noted: for XNTP polymerization relative to compound 10: 30 minutes at 23 °C; for XNTP polymerization relative to compound 14: compound 16 at 2 Mm, compound 17 at 0.5, 1, 2, 3 Mm, 30 minutes at 37 °C, FIG. 13. As for the experimental part: (§1) PEM activity of compound 12 was tested in primer extension assays using the HIV2 100mer template. Primer extension reactions included the following reagents: 50 Mm TrisCl, 200 Mm NH4Oac, 20% PEG8K, 5% NMS, 0.6 nmol PP-60.20, 0.6 Mm MnCl2, 2.75 μg/μl Eco single-strand binding protein (SSB), 1 M urea, 50 pmol each XNTP, 1.1 pmol template, 1 pmol [COMPOUND LEFT OUT] primer, 1.2 μg/μl purified recombinant C4760 DNA polymerase (SEQ ID NO: 2), and 0.5, 1, or 1.5 Mm PEM. 10 μL primer extension reactions were run for 30 minutes at 23 °C and reaction products were analyzed by gel electrophoresis.
as §1, with “compounds 13 and 14” for “compound 12”, “(a variant of DPO4, see SEQ” for “(SEQ”, “1, 1.52,” for “1,”, “2.5” for “1.5”, “electrophoresis. A representative gel showing primer extension products is presented in FIG. 11 (the position of the full length HIV2 100mer is indicated by the arrow).” for “electrophoresis.”
PEM activity of compounds 16, 17, and 18 and combinations thereof were tested in primer extension assays using the HIV2-derived 100mer template. […] 10 μL primer extension reactions were run for 30 minutes at 37 °C and reaction products were analyzed by gel electrophoresis. A representative gel showing primer extension products is presented in FIG. 13 (the position of a 100mer product is indicated by the arrow).

Experiment [2] concerns the target T1, C4760 DNA polymerase (a variant of DPO4). Briefly: Primer extension on 45mer RNA template (HIV2) with C4760 polymerase, gel. It is filed as biochemical, Sulfolobus solfataricus. To be noted: 2 Mm PEM, 45mer RNA template derived from HIV2, Kod SSB, 30 minutes at 37 °C. As for the experimental part: To begin to investigate the potential of PEMs to enhance diverse polymerase reactions, the ability of PEMS to enable DNA polymerase to utilize RNA as a template was tested. An initial screen of several compounds set forth in Table 1 was conducted using a 45mer RNA template derived from the HIV2 genome sequence. Primer extension reactions included the following reagents: 50 Mm TrisCl, 200 Mm NH4OAc, 20% PEG8K, 5% NMS, 0.6 nmol PP-60.20, 0.6 Mm MnCl2, 2 μg Kod single-strand binding protein (SSB), 1 M urea, 50 pmol each XNTP, 0.5 pmol template, 0.5 pmol [COMPOUND LEFT OUT] primer, 1.2 μg purified recombinant C4760 DNA polymerase (a variant of DPO4, see SEQ ID NO: 2), and 2 Mm PEM. 10 μL primer extension reactions were run for 30 minutes at 37 °C and reaction products were analyzed by gel electrophoresis.

[3] abbreviates: 0.5, 1, 1.52, or 2.5 Mm PEM, FIG. 11.

Each structure is given as a SMILES string. Read-outs that look alike come from different tables or passages of the source.

With `Cc1cc(-c2cn(-c3ccc(C(=O)O)c(O)c3)nn2)nc(-c2cn(-c3ccc(C(=O)O)c(O)c3)nn2)c1` [Compound 13, 4,4′-((4-methylpyridine-2,6-diyl)bis(1H-1,2,3-triazole-4,1-diyl))bis(2-hydroxybenzoic acid)], the “XNTP polymerization relative to compound 10” value in experiment [1] (setting [3]) is on record as “comparable to that of compound 10”.
As to `CCNC(=O)c1cc(-c2cn(-c3ccc(C(=O)O)c(F)c3)nn2)nc(-c2cn(-c3ccc(C(=O)O)c(F)c3)nn2)c1` [Compound 76, 4,4′-((4-(ethylcarbamoyl)pyridine-2,6-diyl)bis(1H-1,2,3-triazole-4,1-diyl))bis(2-fluorobenzoic acid)], the “PEM activity on RNA template” value in experiment [2] was “display PEM activity on an RNA template”.
Same read-out and setting: the value for `CCNC(=O)c1cc(-c2cn(-c3ccc(C(=O)O)c(C(F)(F)F)c3)nn2)nc(-c2cn(-c3ccc(C(=O)O)c(C(F)(F)F)c3)nn2)c1` [Compound 73, 4,4′-((4-(ethylcarbamoyl)pyridine-2,6-diyl)bis(1H-1,2,3-triazole-4,1-diyl))bis(2-(trifluoromethyl)benzoic acid)] was “display PEM activity on an RNA template”.
On to `CCNC(=O)c1cc(-c2cn(-c3ccc(C(=O)O)c([N+](=O)[O-])c3)nn2)nc(-c2cn(-c3ccc(C(=O)O)c([N+](=O)[O-])c3)nn2)c1` [Compound 106, 4,4′-((4-(ethylcarbamoyl)pyridine-2,6-diyl)bis(1H-1,2,3-triazole-4,1-diyl))bis(2-nitrobenzoic acid)], for which the “PEM activity on RNA template” value in experiment [2] was “display PEM activity on an RNA template”.
As for `N#Cc1cc(-c2cn(-c3ccc(O)c(C(=O)O)c3)nn2)nc(-c2cn(-c3ccc(O)c(C(=O)O)c3)nn2)c1` [Compound 12, 5,5′-((4-cyanopyridine-2,6-diyl)bis(1H-1,2,3-triazole-4,1-diyl))bis(2-hydroxybenzoic acid)], the “XNTP polymerization relative to compound 10” value in experiment [1] (0.5, 1, or 1.5 Mm PEM, FIG. 10) is reported as “comparable to that of compound 10”.
Take `O=C(O)c1ccc(-n2cc(-c3ccc(-c4cn(-c5ccc(C(=O)O)c(C(F)(F)F)c5)nn4)o3)nn2)cc1C(F)(F)F` [Compound 118, 4,4′-(furan-2,5-diylbis(1H-1,2,3-triazole-4,1-diyl))bis(2-(trifluoromethyl)benzoic acid)]: the “PEM activity on RNA template” value in experiment [2] was “display PEM activity on an RNA template”.
In the case of `CCN(CC)C(=O)c1cc(-c2cn(-c3ccc(C(=O)O)c(O)c3)nn2)nc(-c2cn(-c3ccc(C(=O)O)c(O)c3)nn2)c1` [Compound 49, 4,4′-((4-(diethylcarbamoyl)pyridine-2,6-diyl)bis(1H-1,2,3-triazole-4,1-diyl))bis(2-hydroxybenzoic acid)], the “PEM activity on RNA template” value in experiment [2] was “display PEM activity on an RNA template”.
Still for that read-out and setting: in the case of `CCNC(=O)c1cc(-c2cn(-c3ccc(C(=O)NCC(=O)O)c(C(F)(F)F)c3)nn2)nc(-c2cn(-c3ccc(C(=O)NCC(=O)O)c(C(F)(F)F)c3)nn2)c1` [Compound 110, 2,2′-((4,4′-((4-(ethylcarbamoyl)pyridine-2,6-diyl)bis(1H-1,2,3-triazole-4,1-diyl))bis(2-(trifluoromethyl)benzoyl))bis(azanediyl))diacetic acid] it was “display PEM activity on an RNA template”.
`CCOC(=O)c1cc(-c2cn(-c3ccc(C(=O)O)c(O)c3)nn2)nc(-c2cn(-c3ccc(C(=O)O)c(O)c3)nn2)c1` [Compound 14, 4,4′-((4-(ethoxycarbonyl)pyridine-2,6-diyl)bis(1H-1,2,3-triazole-4,1-diyl))bis(2-hydroxybenzoic acid)]: the “XNTP polymerization relative to compound 10” value in experiment [1] (setting [3]) is reported as “comparable to that of compound 10”.
As for `CCNC(=O)c1cc(-c2cn(-c3cc(C(=O)O)cc(C(F)(F)F)c3)nn2)nc(-c2cn(-c3cc(C(=O)O)cc(C(F)(F)F)c3)nn2)c1` [Compound 93, 5,5′-((4-(ethylcarbamoyl)pyridine-2,6-diyl)bis(1H-1,2,3-triazole-4,1-diyl))bis(3-(trifluoromethyl)benzoic acid)], in experiment [2], the “PEM activity on RNA template” value is on record as “display PEM activity on an RNA template”.
Still for that read-out and setting: in the case of `O=C(NCCO)c1cc(-c2cn(-c3ccc(C(=O)O)c(C(F)(F)F)c3)nn2)nc(-c2cn(-c3ccc(C(=O)O)c(C(F)(F)F)c3)nn2)c1` [Compound 105, 4,4′-((4-((2-hydroxyethyl)carbamoyl)pyridine-2,6-diyl)bis(1H-1,2,3-triazole-4,1-diyl))bis(2-(trifluoromethyl)benzoic acid)] it was “display PEM activity on an RNA template”.
Still for that read-out and setting: the value for `O=C(O)c1ccc(-n2cc(-c3cc(C(=O)N4CCOCC4)cc(-c4cn(-c5ccc(C(=O)O)c(O)c5)nn4)n3)nn2)cc1O` [Compound 51, 4,4′-((4-(morpholine-4-carbonyl)pyridine-2,6-diyl)bis(1H-1,2,3-triazole-4,1-diyl))bis(2-hydroxybenzoic acid)] was “display PEM activity on an RNA template”.
As to `CCNC(=O)c1cc(-c2cn(-c3ccc(C(=O)O)c(O)c3)nn2)nc(-c2cn(-c3ccc(C(=O)O)c(O)c3)nn2)c1` [Compound 17, 4,4′-((4-(ethylcarbamoyl)pyridine-2,6-diyl)bis(1H-1,2,3-triazole-4,1-diyl))bis(2-hydroxybenzoic acid)], in experiment [2], the “PEM activity on RNA template” value was “display PEM activity on an RNA template”. In experiment [1], the “XNTP polymerization relative to compound 14” value is reported as “comparable to that of compound 14”.
As for `COC(=O)c1cc(-c2cn(-c3ccc(C(=O)O)c(O)c3)nn2)nc(-c2cn(-c3ccc(C(=O)O)c(O)c3)nn2)c1` [Compound 16, 4,4′-((4-(methoxycarbonyl)pyridine-2,6-diyl)bis(1H-1,2,3-triazole-4,1-diyl))bis(2-hydroxybenzoic acid)], the “XNTP polymerization relative to compound 14” value in experiment [1] is listed as “comparable to that of compound 14”.
For `CCNC(=O)c1cc(-c2cn(-c3ccc(C(F)(F)F)c(C(=O)O)c3)nn2)nc(-c2cn(-c3ccc(C(F)(F)F)c(C(=O)O)c3)nn2)c1` [Compound 75, 5,5′-((4-(ethylcarbamoyl)pyridine-2,6-diyl)bis(1H-1,2,3-triazole-4,1-diyl))bis(2-(trifluoromethyl)benzoic acid)], the “PEM activity on RNA template” value in experiment [2] is “display PEM activity on an RNA template”.
Still for that read-out and setting: in the case of `CCNC(=O)c1cc(-n2cc(-c3ccc(C(=O)O)c(C(F)(F)F)c3)nn2)cc(-n2cc(-c3ccc(C(=O)O)c(C(F)(F)F)c3)nn2)c1` [Compound 116, 4,4′-((5-(ethylcarbamoyl)-1,3-phenylene)bis(1H-1,2,3-triazole-1,4-diyl))bis(2-(trifluoromethyl)benzoic acid)] it was “display PEM activity on an RNA template”.

Values taken from patent US20260365633A1, “Novel PEM Structures for SBX” (Roche Sequencing Solutions, Inc., priority 2023, published 2026).
